{
  "source": "patent EP1970064A1",
  "about": "“Silicon-derivatives for pet-imaging” (Bayer Schering Pharma Aktiengesellschaft, priority 2007, dated 2008)",
  "data": [
    {"test": "Hydrolytic stability: hydrolysis of the 19F fluorosilane to the silanol at physiological pH (7.0)", "format": "physicochemical", "conditions": "hydrolytic halflife of the 19F compound at pH 7.0, calculated from the kinetics", "method": "The time dependent degree of hydrolysis of compounds of formula I in which X is a fluorine atom of isotope 19 to compounds of formula I in which X is a hydroxy group was determined at physiological pH (7.0). From the kinetics the hydrolytic halflife (t1/2) measured in hours [h] of compounds of formula I in which X is a fluorine atom of isotope 19 were calculated (Table 1, column 2).\nThe ratio of the hydrolytic halflifes of compounds of formula I in which X is a fluorine atom of isotope 19 and the radioactive halflife of the 18-F isotope (1.83 hours) is defined as relative stability (Table 1, column 3).\nAfter 6 hours 90% of the 18-F isotope have been decayed.\nCompounds of formula I in which X is a fluorine atom of isotope 18 are considered as useful for PET applications if the relative stability of their analogs bearing a fluorine atom of isotope 19 exceed a factor of four and if at least 50% of these compounds remain intact after 6 hours under hydrolytic conditions at pH 7.", "units": {"t1/2": "h"}, "values": [
      {"smiles": "F[Si](c1ccccc1)(c1ccccc1)c1ccc(CCOC2CCCCO2)cc1", "note": "(racemic) [Compound 3f-F, (RS)-Fluoro-diphenyl-{4-[2-(tetrahydro-pyran-2-yloxy)-ethyl]-phenyl}-silane]", "t1/2": 0.07},
      {"smiles": "CC(C)[Si](F)(c1cccc(CCCOC2CCCCO2)c1)C(C)C", "note": "(racemic) [Compound 3d - F, (RS)-Fluoro-diisopropyl-{3-[3-(tetrahydro-pyran-2-yloxy)-propyl]-phenyl}-silane]", "t1/2": "> 100.0"},
      {"smiles": "CC(C)C[Si](F)(CC(C)C)c1ccc(CC(=O)O)cc1", "note": "[Compound 5h-F, [4-(Fluoro-diisobutyl-silanyl)-phenyl]-acetic acid]", "t1/2": 8.7},
      {"smiles": "CC(C)[Si](F)(c1cccc(CCOC2CCCCO2)c1)C(C)C", "note": "(racemic) [Compound 3e - F, (RS)-Fluoro-diisopropyl-{3-[2-(tetrahydro-pyran-2-yloxy)-ethyl]-phenyl}-silane]", "t1/2": "> 100.0"},
      {"smiles": "CC(C)[Si](F)(c1ccc(CCCO)cc1)C(C)C", "note": "[Compound 4c - F, 3-[4-(Fluoro-diisopropyl-silanyl)-phenyl]-propan-1-ol]", "t1/2": "> 100.0"},
      {"smiles": "CC(C)C[Si](F)(CC(C)C)c1ccc(COC2CCCCO2)cc1", "note": "(racemic) [Compound 3g-F, (RS)-Fluoro-diisobutyl-[4-(tetrahydro-pyran-2-yloxymethyl)-phenyl]-silane]", "t1/2": 8.1},
      {"smiles": "CC(C)[Si](F)(c1ccc(CCC(=O)O)cc1)C(C)C", "note": "[Compound 5c - F, 3-[4-(Fluoro-diisopropyl-silanyl)-phenyl]-propionic acid]", "t1/2": 59.0},
      {"smiles": "CC(C)C[Si](F)(CC(C)C)c1ccc(C(=O)O)cc1", "note": "[Compound 5g-F, 4-(Fluoro-diisobutyl-silanyl)-benzoic acid]", "t1/2": 3.5},
      {"smiles": "CC(C)[Si](F)(c1cccc(CC(=O)O)c1)C(C)C", "note": "[Compound 5e - F, [3-(Fluoro-diisopropyl-silanyl)-phenyl]-acetic acid]", "t1/2": 20.0}
    ]}
  ]
}
